One data set concerns Semliki Forest virus. As to the kind of experiment: Antiviral activity against SFV infected in BHK cells assessed as surviving virus fraction at 50 uM after 14 hrs by luciferase reporter gene assay. Format: functional. Set-up: scale not given here.
Data set [1] in a line: Cytotoxicity against human HuH7 cells assessed as cell viability at 50 uM after 24 hrs.

Drawing on ChEMBL document CHEMBL1154369, “Betulin-derived compounds as inhibitors of alphavirus replication” (J Nat Prod, 2009), this text covers Activity and viability for 13 compounds.

One may read the viability as a read-out of living cells in per cent, often relative to untreated cells. As to `CCC(=O)OC[C@]12CC[C@]3(C(C)C)C1=C1[C@H](C[C@@H]4[C@@]5(C)CC[C@H](OC(=O)CC)C(C)(C)[C@@H]5CC[C@@]4(C)[C@]1(C)CC2)n1c(=O)n(C)c(=O)n13`, in the data set with Semliki Forest virus, the Activity is recorded as 21%. The viability at 24 h, 50 µM in data set [1] worked out at 75%.
For `C=C(C)[C@@H]1CC[C@]2(COC(=O)C3C(C=C(C)C)C3(C)C)CC[C@]3(C)[C@H](CC[C@@H]4[C@@]5(C)CC[C@H](O)C(C)(C)[C@@H]5CC[C@]43C)[C@@H]12` (stereo partly specified) the same measures were 95% and 90%.
For `C=C(C)[C@@H]1CC[C@]2(C(=O)N[C@@H](CC(=O)OC)C(=O)OC)CC[C@]3(C)[C@H](CC[C@@H]4[C@@]5(C)CCC(=O)C(C)(C)[C@@H]5CC[C@]43C)[C@@H]12` the same measures were 40% and 30%.
Turning to `CC(C)[C@@]12CC[C@]3(CO)CC[C@]4(C)C(=C31)[C@H](C[C@@H]1[C@@]3(C)CC[C@H](O)C(C)(C)[C@@H]3CC[C@]14C)n1c(=O)n(-c3ccccc3)c(=O)n12`, the Activity in the data set on Semliki Forest virus was 73%. In addition, the viability at 24 h, 50 µM in data set [1] was 85%.
For `C=C(C)[C@@H]1CC[C@]2(C(=O)Oc3ccc(C=O)cc3OC)CC[C@]3(C)[C@H](CC[C@@H]4[C@@]5(C)CCC(=O)C(C)(C)C5CC[C@]43C)[C@@H]12` (stereo partly specified) [VANILLINYL BETULONATE] the same measures were 43% and 89%.
For `C=C(C)[C@@H]1CC[C@]2(COC(=O)CCC(C)=O)CC[C@]3(C)[C@H](CC[C@@H]4[C@@]5(C)CC[C@H](OC(=O)CCC(C)=O)C(C)(C)[C@@H]5CC[C@]43C)[C@@H]12` the same measures were 74% and 109%.
`C=C(C)[C@@H]1CC[C@]2(CO)CC[C@]3(C)[C@H](CC[C@@H]4[C@@]5(C)CC=CC(C)(C)[C@@H]5CC[C@]43C)[C@@H]12`: in the data set on Semliki Forest virus, the Activity came to 121%. In addition, the viability at 24 h, 50 µM in data set [1] turned out to be 85%.
For `CC(C)[C@@]12CC[C@]3(COC(=O)C4CCCCC4)CC[C@]4(C)C(=C31)[C@H](C[C@@H]1[C@@]3(C)CC[C@H](OC(=O)C5CCCCC5)C(C)(C)[C@@H]3CC[C@]14C)n1c(=O)n(C)c(=O)n12` the same measures were 44% and 97%.
For `COc1cccc(-n2c(=O)n3n(c2=O)[C@]2(C(C)C)CC[C@]4(COC(C)=O)CC[C@]5(C)C(=C42)[C@@H]3C[C@@H]2[C@@]3(C)CC[C@H](OC(C)=O)C(C)(C)[C@@H]3CC[C@]25C)c1` the same measures were 121% and 93%.
In the case of `C=C(C)[C@@H]1CC[C@]2(C=O)CC[C@]3(C)[C@H](CC[C@@H]4[C@@]5(C)CC[C@H](O)C(C)(C)[C@@H]5CC[C@]43C)[C@@H]12` [BETULINALDEHYDE], the Activity in the data set with Semliki Forest virus worked out at 1%. For the same compound, in data set [1], the viability at 24 h, 50 µM was 0%.
`C=C(C)[C@@H]1CC[C@]2(COC(=O)c3cccnc3)CC[C@]3(C)[C@H](CC[C@@H]4[C@@]5(C)CC[C@H](O)C(C)(C)[C@@H]5CC[C@]43C)[C@@H]12`: the Activity in the data set on Semliki Forest virus is 43%. Besides, the viability at 24 h, 50 µM in data set [1] came out at 94%.
As to `CC(C)[C@@]12CC[C@]3(COC(=O)c4ccccc4)CC[C@]4(C)C(=C31)[C@H](C[C@@H]1[C@@]3(C)CC[C@H](OC(=O)c5ccccc5)C(C)(C)[C@@H]3CC[C@]14C)n1c(=O)n(C)c(=O)n12`, in the data set with Semliki Forest virus, the Activity was 22%. Besides, in data set [1], the viability at 24 h, 50 µM amounted to 108%.
For `C=C(C)[C@@H]1CC[C@]2(COC(=O)/C=C/c3ccccc3)CC[C@]3(C)[C@H](CC[C@@H]4[C@@]5(C)CC[C@H](O)C(C)(C)[C@@H]5CC[C@]43C)[C@@H]12` the same measures were 111% and 96%.
